US6376666B1 (Nauchno-Issledovatelsky Institut Farmakologii Rossiiskoi …, priority 1994, dated 2002)

Columns and labels:
Type in all cases: in vivo
Balb/c mice = test: open-field test, Balb/c mice (passive type of emotional-stress reaction); parameters: key to Total activity: sum of all locomotor activity counts (crossings + rearings) in 3 min; conditions: for Central activity (crossings) / Number of defecations / Peripheral activity (crossings) / Total activity / Vertical activity (rearings): M ± mx; for effect on the behavior (locomotor activity) of Balb/c mice in open-field test, in words: i.p., screening
From the text: (§1) The main point of this approach consists in comparative analysis of the behavioural effects of tested compounds in two inbred strains of mice Balb/c and C57B1/6 with different hereditary types of emotional-stress reactions (ESR). The anxiolytic effect was estimated as the activation of the locomotor activity of animals with “passive” type of ESR (Balb/c mice). The main index describing the sedative properties of tested drugs was the inhibition of the locomotor activity of mice with “active” type of ESR (C57B1/6 strain). The anxioselectivity was evaluated according to coincidence of doses range which activated or inhibited the behavior of mice of different strains. Earlier this approach has been successfully used for estimation of anxioselective activity of such known drugs as phenazepam [Seredenin S. B. et al., Bull.Exp.Biol.Med., 1979, v.88, N7, p.38; Seredenin S. B. et al., Ann.Inst.Super.Sanita, 1990, v.26, N1, p.81-88], mexidol [Seredenin S. B. et al., Khimiko-Farmatsevt.Zhurnal, 1987, N2, p.134; Vironina T. A., Seredenin S. B., Ann.Inst.Super.Sanita, 1988, v.24, N3, p.461-466] and gidazepam [Seredenin S. B. et al., in: “Gidazepam” Kiev, Naukova Dumka, 1992, p.92; Seredenin S. B., Blednov Yu. A., Phys.Chem.Biol.Med., 1993, v.1, N1, p.53-60].
(§2) Male C57B1/6 and Balb/c mice (“Stolbovaya” animal farm), weighing 20-22 g were used. The animals were housed in a separate animal room in groups of ten and maintained on 12 h light-dark cycle (light from 8.00 till 20.00) with free access to standard food and water during two weeks before experiment. Testing was performed between 9.00 and 13.00. Every used compound was administered intraperitoneally in water solutions 30 min before testing (0,1 ml solution per 10 g of weight). The “open-field” apparatus consisted of cylinder closed from one end, illuminated by four 75 W lamps fixed to the walls 100 cm above the floor. The “open-field” apparatus was 100 cm in diameter and white-painted; the floor was marked with 3 black circles and some radial lines divided the floor into 16 peripheral and 8 central segments. 30 min after injection each animal was placed in the same peripheral square on the floor for 3 min of testing after 1 min exposure in the dark chamber. The following behavior variables were recorded: 1) the number of crossings in the peripheral area (peripheral activity); 2) the number of crossings in the central segments (central activity); 3) the number of rearings (vertical activity); 4) the emotionality was measured as the number of defecations during the test. The sum of all types of locomotor activity was marked as total activity. The t-Student test was used for statistical analysis.

C57B1/6 mice = test: open-field test, C57B1/6 mice (active type of emotional-stress reaction); parameters: key to Total activity: sum of all locomotor activity counts (crossings + rearings) in 3 min; conditions: for effect on locomotor activity of C57B1/6 mice in open-field test, in words: i.p., doses that activate Balb/c mice; for Central activity (crossings) / Peripheral activity (crossings) / Total activity / Vertical activity (rearings): M ± mx
From the text: as §1, §2

cats = test: hemodynamics and activity of intact heart in cats under anesthesia; conditions: cats i.v.; for effect on heart rate, in words: doses of 0,5 mg/kg-2,0 mg/kg
Experimental: The effects of compounds on the hemodynamics and activity of intact heart were studied in cats under anesthesia. The experiments were carried out under conditions of open chest. The phase curve of aortic blood flow was the main index of cardiac activity. The compounds were administered i.v. in physiological solution. The t-Student' test was used to estimate the statistical significance.

Cc1cc2nc(SCCN3CCCC3)[nH]c2cc1C [XIII, 2-[2-(Pyrrolidino)ethylthio]-5,6-dimethylbenzimidazole]
Central activity (crossings) (Balb/c mice; 0.5 mg/kg i.p.): 4.3 ± 4.1
Number of defecations (Balb/c mice; 0.5 mg/kg i.p.): 2.9 ± 0.6
Peripheral activity (crossings) (Balb/c mice; 0.5 mg/kg i.p.): 32.0 ± 5.7
Total activity (Balb/c mice; 0.5 mg/kg i.p.): 36.3 ± 9.8
Central activity (crossings) (Balb/c mice; 1.0 mg/kg i.p.): 0.8 ± 0.5
Number of defecations (Balb/c mice; 1.0 mg/kg i.p.): 1.0 ± 0.5
Peripheral activity (crossings) (Balb/c mice; 1.0 mg/kg i.p.): 80.0 ± 11.2
Total activity (Balb/c mice; 1.0 mg/kg i.p.): 80.8 ± 11.7
Number of defecations (Balb/c mice; 5.0 mg/kg i.p.): 1.6 ± 0.7
Peripheral activity (crossings) (Balb/c mice; 5.0 mg/kg i.p.): 69.0 ± 13.2
Total activity (Balb/c mice; 5.0 mg/kg i.p.): 69.0 ± 13.2
Central activity (crossings) (Balb/c mice; 50.0 mg/kg i.p.): 0.7 ± 0.5
Peripheral activity (crossings) (Balb/c mice; 50.0 mg/kg i.p.): 27.7 ± 6.2
Total activity (Balb/c mice; 50.0 mg/kg i.p.): 28.4 ± 6.7
effect on the behavior (locomotor activity) of Balb/c mice in open-field test, in words (Balb/c mice): able to activate the behavior of Balb/c mice
effect on locomotor activity of C57B1/6 mice in open-field test, in words (C57B1/6 mice): without any changes in locomotor activity

CCOc1ccc2nc(SCCN(CC)CC)[nH]c2c1 [VI, 2-2-[(Diethylamino)ethylthio]-5-ethoxybenzo-imidazole]
Peripheral activity (crossings) (Balb/c mice; 0.1 mg/kg i.p., 0.1 mg/kg): 3.0 ± 1.8
Total activity (Balb/c mice; 0.1 mg/kg i.p., 0.1 mg/kg): 3.0 ± 1.8
Vertical activity (rearings) (Balb/c mice; 1.0 mg/kg i.p.): 0.4 ± 0.4
Peripheral activity (crossings) (Balb/c mice; 1.0 mg/kg i.p., 1 mg/kg): 3.3 ± 1.3
Total activity (Balb/c mice; 1.0 mg/kg i.p., 1 mg/kg): 3.7 ± 1.7
Peripheral activity (crossings) (Balb/c mice; 10.0 mg/kg i.p., 10 mg/kg): 3.1 ± 0.8
Total activity (Balb/c mice; 10.0 mg/kg i.p., 10 mg/kg): 3.1 ± 0.8
effect on the behavior (locomotor activity) of Balb/c mice in open-field test, in words (Balb/c mice): inhibited the locomotor activity
effect on heart rate, in words (cats): small and short bradycardia

C=CCSc1nc2cc(C)c(C)cc2[nH]1 [III, 2-Allylthio-5,6-dimethylbenzimidazole]
Central activity (crossings) (Balb/c mice; 0.1 mg/kg i.p.): 3.3 ± 2.0
Number of defecations (Balb/c mice; 0.1 mg/kg i.p.): 2.5 ± 0.9
Peripheral activity (crossings) (Balb/c mice; 0.1 mg/kg i.p.): 28.1 ± 5.8
Total activity (Balb/c mice; 0.1 mg/kg i.p.): 32.1 ± 7.9
Vertical activity (rearings) (Balb/c mice; 0.1 mg/kg i.p.): 0.6 ± 0.4
Central activity (crossings) (Balb/c mice; 1.0 mg/kg i.p.): 0.6 ± 0.3
Number of defecations (Balb/c mice; 1.0 mg/kg i.p.): 2.5 ± 0.7
Peripheral activity (crossings) (Balb/c mice; 1.0 mg/kg i.p.): 35.8 ± 6.1
Total activity (Balb/c mice; 1.0 mg/kg i.p.): 36.4 ± 6.4
Central activity (crossings) (Balb/c mice; 5.0 mg/kg i.p.): 0.3 ± 0.3
Number of defecations (Balb/c mice; 5.0 mg/kg i.p.): 3.0 ± 0.7
Peripheral activity (crossings) (Balb/c mice; 5.0 mg/kg i.p.): 46.8 ± 9.9
Total activity (Balb/c mice; 5.0 mg/kg i.p.): 47.5 ± 10.3
Vertical activity (rearings) (Balb/c mice; 5.0 mg/kg i.p.): 0.4 ± 0.3
Central activity (crossings) (Balb/c mice; 10.0 mg/kg i.p.): 3.3 ± 2.1
Number of defecations (Balb/c mice; 10.0 mg/kg i.p.): 2.0 ± 0.7
Peripheral activity (crossings) (Balb/c mice; 10.0 mg/kg i.p.): 56.1 ± 12.2
Total activity (Balb/c mice; 10.0 mg/kg i.p.): 59.4 ± 13.8
Number of defecations (Balb/c mice; 20.0 mg/kg i.p.): 1.5 ± 0.7
Peripheral activity (crossings) (Balb/c mice; 20.0 mg/kg i.p.): 24.0 ± 11.5
Total activity (Balb/c mice; 20.0 mg/kg i.p.): 24.1 ± 11.5
effect on the behavior (locomotor activity) of Balb/c mice in open-field test, in words (Balb/c mice): able to activate the behavior of Balb/c mice
Central activity (crossings) (C57B1/6 mice; 0.1 mg/kg i.p.): 42.1 ± 4.8
Peripheral activity (crossings) (C57B1/6 mice; 0.1 mg/kg i.p.): 109.4 ± 8.3
Total activity (C57B1/6 mice; 0.1 mg/kg i.p.): 170.9 ± 10.0
Vertical activity (rearings) (C57B1/6 mice; 0.1 mg/kg i.p.): 19.4 ± 3.4
Central activity (crossings) (C57B1/6 mice; 0.5 mg/kg i.p.): 42.1 ± 7.5
Peripheral activity (crossings) (C57B1/6 mice; 0.5 mg/kg i.p.): 118.4 ± 9.0
Total activity (C57B1/6 mice; 0.5 mg/kg i.p.): 184.6 ± 8.6
Vertical activity (rearings) (C57B1/6 mice; 0.5 mg/kg i.p.): 22.6 ± 2.0
Central activity (crossings) (C57B1/6 mice; 1.0 mg/kg i.p.): 35.9 ± 7.6
Peripheral activity (crossings) (C57B1/6 mice; 1.0 mg/kg i.p.): 107.8 ± 7.4
Total activity (C57B1/6 mice; 1.0 mg/kg i.p.): 165.9 ± 13.5
Vertical activity (rearings) (C57B1/6 mice; 1.0 mg/kg i.p.): 22.3 ± 3.8
Central activity (crossings) (C57B1/6 mice; 5.0 mg/kg i.p.): 28.8 ± 6.9
Peripheral activity (crossings) (C57B1/6 mice; 5.0 mg/kg i.p.): 130.8 ± 16.8
Total activity (C57B1/6 mice; 5.0 mg/kg i.p.): 177.8 ± 20.7
Vertical activity (rearings) (C57B1/6 mice; 5.0 mg/kg i.p.): 18.6 ± 2.7
Central activity (crossings) (C57B1/6 mice; 10.0 mg/kg i.p.): 23.6 ± 5.3
Peripheral activity (crossings) (C57B1/6 mice; 10.0 mg/kg i.p.): 118.0 ± 7.9
Total activity (C57B1/6 mice; 10.0 mg/kg i.p.): 154.4 ± 13.3
Vertical activity (rearings) (C57B1/6 mice; 10.0 mg/kg i.p.): 12.9 ± 1.8
Central activity (crossings) (C57B1/6 mice; 50.0 mg/kg i.p.): 24.0 ± 2.7
Peripheral activity (crossings) (C57B1/6 mice; 50.0 mg/kg i.p.): 105.2 ± 11.9
Total activity (C57B1/6 mice; 50.0 mg/kg i.p.): 141.3 ± 11.7
Vertical activity (rearings) (C57B1/6 mice; 50.0 mg/kg i.p.): 12.1 ± 1.3
effect on locomotor activity of C57B1/6 mice in open-field test, in words (C57B1/6 mice): without any changes in locomotor activity

CCN(CC)CCSc1nc2ccccc2n1CCc1ccccc1 [XXI, 1-(β-Phenylethyl)-2-[2-(diethylamino)ethylthio]benzimidazole]
effect on the behavior (locomotor activity) of Balb/c mice in open-field test, in words (Balb/c mice): neither activatory nor inhibitory effects
effect on heart rate, in words (cats): small and short bradycardia

CCOc1ccc2nc(SCCN3CCCCC3)[nH]c2c1 [XI]
effect on the behavior (locomotor activity) of Balb/c mice in open-field test, in words (Balb/c mice): neither activatory nor inhibitory effects
effect on parameters of hemodynamics and heart activity, in words (cats): no effects on the parameters of hemodynamics and heart activity

CCN(CC)CCSc1nc2ccccc2n1Cc1ccccc1 [XIX, 1-Benzyl-2-[2-(diethylarnino)ethylthio]benzimidazole]
effect on the behavior (locomotor activity) of Balb/c mice in open-field test, in words (Balb/c mice): inhibited the locomotor activity
effect on parameters of hemodynamics and heart activity, in words (cats): no effects on the parameters of hemodynamics and heart activity

Cc1cc2nc(SCCCN3CCN(C)CC3)[nH]c2cc1C [XVII, 2-[3-(4-Methylpyperazino)propylthio]-5,6-dimethylbenzimidazole]
Central activity (crossings) (Balb/c mice; 0.1 mg/kg i.p.): 0.5 ± 0.5
Number of defecations (Balb/c mice; 0.1 mg/kg i.p.): 2.0 ± 0.8
Peripheral activity (crossings) (Balb/c mice; 0.1 mg/kg i.p.): 4.0 ± 1.0
Total activity (Balb/c mice; 0.1 mg/kg i.p.): 4.5 ± 1.5
Number of defecations (Balb/c mice; 1.0 mg/kg i.p.): 0.1 ± 0.1
Peripheral activity (crossings) (Balb/c mice; 1.0 mg/kg i.p.): 7.7 ± 1.9
effect on the behavior (locomotor activity) of Balb/c mice in open-field test, in words (Balb/c mice): inhibited the locomotor activity
effect on heart rate, in words (cats): small and short bradycardia

Cc1cc2nc(SCCCN(C)C)[nH]c2cc1C [XVI, 2-[3-(Dimethylamino)propylthio]-5,6-dimethylbenzimidazole]
effect on the behavior (locomotor activity) of Balb/c mice in open-field test, in words (Balb/c mice): inhibited the locomotor activity
effect on parameters of hemodynamics and heart activity, in words (cats): no effects on the parameters of hemodynamics and heart activity

CN(C)CCSc1nc2ccccc2n1Cc1ccccc1 [XVIII, 1-Benzyl-2-[2-(dimethylamino)ethylthuo]benzimidazole]
effect on parameters of hemodynamics and heart activity, in words (cats): no effects on the parameters of hemodynamics and heart activity

c1ccc(CCn2c(SCCN3CCOCC3)nc3ccccc32)cc1 [XXII]
effect on the behavior (locomotor activity) of Balb/c mice in open-field test, in words (Balb/c mice): neither activatory nor inhibitory effects
effect on parameters of hemodynamics and heart activity, in words (cats): no effects on the parameters of hemodynamics and heart activity
